Tests used:
OVA challenged mice [1] = experiment: Mucus index score: Schiff staining of airway epithelia; format: in vivo, C57BL/6 mice; conditions: 0.07% (w/w) in diet; for Suppression (inhibition) of mucus production: Example 9, compared to control diet, significance not reached; for Mucus Index Score (Mean ± SEM): Table 7, scale 0-4
Procedure: (§1) Body weights were determined, and blood samples collected via the tail vein, prior to assignment of mice to particular diets. After two weeks on an assigned diet mice were immunized with two intraperitoneal (i.p.) injections of 20 μg of OVA (chicken egg albumin grade V; Sigma Chemical Co., St Louis, Mo.) complexed with 2 mg of Imject Alum (Al(OH)3/Mg(OH)2; Pierce Rockford Ill.) in a total volume of 100 μl of PBS on days 0 and 14. Two weeks after the 2nd injection mice were anaesthetized by i.p. injection of a mixture of ketamine and xylazine (Phoenix, Auckland, New Zealand), and challenged intranasally with 100 μg of OVA in 50 μl of PBS. Undiseased control mice were immunized and challenged with PBS using a similar regime. Body weights were determined, and blood, bronchoalveolar lavage (BAL) fluid, and lung tissue samples were collected 6 days after the intranasal challenge. Blood was collected by cardiac puncture after deeply anaesthetizing mice by i.p. injection of a mixture of ketamine and xylazine. Serum was separated from blood samples, and stored at −80° C.
(§2) Following BAL, the right lobes of lungs were immediately frozen in dry ice and stored at −80° C. for protein and Western blot analysis. The left lobes of lungs were fixed in 4% paraformaldehyde in 0.1 M PBS (pH 7.4) overnight and embedded either in optimum cutting temperature compound (OCT, Tissue Tek) and kept frozen at −80° C. until cryosectioning for immunohistochemistry, or in paraffin for routine histopathological analysis. Some were stained with a combined hematoxylin-Biebrich Scarlet solution by Luna's method for eosinophils to detect eosinophil granules (34) or with Alcian Blue-Periodic Acid Schiff for the detection of acid and neutral mucins and identification of goblet cells.
The level of Schiff staining of airway epithelia was semi-quantitatively determined to give a mucus index score as described (38), but modified in that Schiff staining was scored by microscopic viewing of airways. A minimum of 4 to 6 representative transversely or sagittally sectioned airways were graded per animal using a scale of 0 (no staining), 1 (25% or less of the airway epithelium stained), 2 (26-50% of the airway epithelium stained), 3 (51-75% of the airway epithelium stained), and 4 ([…]). Airways were analysed only when the complete circumference of the airway could be visualized, and those that opened directly into an alveolar space were not included.

OVA-specific IgE = OVA-specific IgE in serum by ELISA; format: in vivo, C57BL/6 mice; conditions: Table 9; 0.07% (w/w) in diet; OVA challenged mice
Procedure: as §1
(§3) OVA-specific IgG1 in serum samples was measured by standard ELISA employing 96 well microtitre plates (Nunc Maxisorp). Plates were coated with 100 μl of 0.1 M carbonate buffer, pH 9.5, containing 10 μg/ml of OVA (Sigma) overnight at 4° C. After 3 washes with PBS-T (PBS with 0.05% Tween-20) plates were blocked with 200 μl of 3% BSA in PBS, pH 7.2, at room temperature for 90 min. One hundred microlitres of each serum sample (diluted 1:40) was added in triplicate to the wells, and incubated for 2 h at 37° C. Wells were washed four times with PBS-T and 100 μl of goat anti-mouse IgG1-HRP conjugated antibody (Bethyl Laboratories, USA) was added at 1:50,000 dilution. Plates were incubated for 1 h at 37° C., washed 5 times with PBS-T, and 100 μl of peroxidase enzyme substrate o-phenylene diamine (OPD, Sigma Chemical Co, St Louis, Mo.) was added to each well. The colour reaction was stopped after ˜20 min by addition of 50 μl of 4 M H2SO4 to each well. Absorbance was read at 490 nm in a BioRad microplate ELISA reader. Positive and negative sera were used as controls.
OVA-specific IgE was measured as for OVA-specific IgG1 except serum samples were diluted 1:5, and OVA was coated on plates at 100 μg/ml (35). A biotin-conjugated rat anti-mouse IgE monoclonal antibody (diluted 1:200; Pharmingen, San Diego, Calif.) was used to detect OVA-specific IgE antibody, and was detected with avidin-HRP conjugate (diluted 1:250) followed by development with OPD.

OVA challenged mice [2] = experiment: Inflammatory cell infiltration into the lung: total and differential BAL cell counts after OVA challenge; format: in vivo, C57BL/6 mice; conditions: Example 8, 0.07% (w/w) in diet; for Reduction in numbers of lymphocytes in BAL / Reduction in numbers of monocytes/macrophages in BAL / Reduction of total BAL cell counts / Suppression of accumulation of eosinophils in BAL: compared to control diet
Procedure: Eight to nine week old male and female C57BL/6 mice (University of Auckland, New Zealand) were kept on an ovalbumin (OVA)-free normal mouse chow diet from weaning up until they were assigned to a particular diet (control or experimental diet). Each diet group (n=6) contained an equal number of male and female mice. Throughout the study period mice were kept in an air-conditioned room with controlled humidity, temperature, and a 12 h light:dark cycle.
as §1
Bronchoalveolar lavage was performed immediately after euthanasia by flushing 1 ml of PBS containing 1% heat inactivated fetal calf serum (lavage buffer) thrice through the lung and airways of mice via the cannulated trachea. The recovered BAL was pooled for each animal, centrifuged at 1,500 rpm at 4° C., and the supernatant stored at −80° C. The cell pellets were resuspended in 1 ml of lavage buffer, and total cell numbers were counted using a hemocytometer. BAL cells were centrifuged onto poly-L-lysine-coated glass slides using a cytospin, and stained with Diff-Quik stain (Dade Behring Inc. USA). Differential cellular counts were made by counting ≧300 cells under light microscopy (Nikon E200 microscope), using standard morphological criteria.

OVA-specific IgG1 = OVA-specific IgG1 in serum by ELISA; format: in vivo, C57BL/6 mice; conditions: Table 10; 0.07% (w/w) in diet; OVA challenged mice
Procedure: as §1, §3

OVA challenged mice [3] = experiment: Histopathology score of lung airway changes; format: in vivo, C57BL/6 mice; conditions: 0.07% (w/w) in diet; for Histopathology score (Mean ± SEM): Table 8; for Inhibition of allergen-specific remodelling and inflammation of the lung, in words: Example 10
Procedure: as §1, §2
The histopathology score was determined from inspection of alcian blue-PAS stained paraffin embedded sections of the left lung of each animal. Lung inflammation, perivascular/peribronchiolar infiltrates, airway epithelial hypertrophy, goblet-cell hyperplasia, constriction of bronchioles, mucin hypersecretion, and beneficial presence of phagocytic macrophages were graded on a scale of 0 (no change) to 4 (marked change). Each animal received an overall histopathology score based on summation of individual scores for each criteria. All slides were scored in a blinded fashion (blinded to diet treatment/group assignment), and scores were presented as the mean±SEM of 4-6 animals/group.

liver = conditions: fed to mice at 0.4% w/w for 4 weeks; cited from earlier work

Compound	Suppression (inhibition) of mucus production (OVA challenged mice [1])	Mucus Index Score (Mean ± SEM) (OVA challenged mice [1])	IgE Values, Average (allergen-specific IgE responses) (OVA-specific IgE)	Reduction in numbers of lymphocytes in BAL (OVA challenged mice [2])	Reduction in numbers of monocytes/macrophages in BAL (OVA challenged mice [2])	Reduction of total BAL cell counts (OVA challenged mice [2])	Suppression of accumulation of eosinophils in BAL (OVA challenged mice [2])	IgG Values, Average (allergen-specific IgG responses) (OVA-specific IgG1)	Histopathology score (Mean ± SEM) (OVA challenged mice [3])	Effect on the liver, in words (liver)	Eosinophil count compared to the control diet, in words (OVA challenged mice [2])	Lymphocyte count compared to the control diet, in words (OVA challenged mice [2])	Monocyte/macrophages count compared to the control diet, in words (OVA challenged mice [2])	Total BAL count compared to the control diet, in words (OVA challenged mice [2])	Inhibition of allergen-specific remodelling and inflammation of the lung, in words (OVA challenged mice [3])	Histopathology score (Mean ± SEM) (OVA challenged mice [3]; listed as free fatty acid form of the c-9, t-11 isomer)
c-9, t-11 CLA [Synthetic c-9, t-11 CLA isomer Triglyceride]	15%	2.58 ± 0.94	1.17	43%	53%	56%	62%	1.96	3.08 ± 0.69							
t-10, c-12 CLA [t-10, c-12 CLA isomer, reference compound]										dramatic enlargement of the liver with steatosis	no significant difference	no significant difference	no significant difference	no significant difference	not effective	
t-10, c-12 CLA [Synthetic t-10, c-12 CLA isomer Triglyceride, reference compound]	15%	2.57 ± 1.16	1.29					1.98	3.20 ± 0.79							
CCCCC/C=C\C=C\CCCCCCCCC(=O)O (single isomer, unassigned) [Synthetic t-10, c-12 CLA isomer Free Fatty Acid, t-10, c-12 CLA, reference compound]	7%	2.80 ± 1.35	1.25					1.95	3.28 ± 0.46							
CCCCCC/C=C/C=C\CCCCCCCC(=O)O (single isomer, unassigned) [Synthetic c-9, t-11 CLA isomer Free fatty acid, c-9, t-11 CLA]	32%	2.04 ± 1.13	0.89	72%	61%	74%	87%	1.91	2.02 ± 0.66						able to significantly inhibit	2.02

Source: patent publication US20080193550A1, “Cla-Enriched Milkfat and Uses Thereof” (FONTERRA CORPORATE RESEARCH AND DEVELOPMENT LIMITED, priority 2004, published 2008)
